In publication PMC8480776, “Selenium Derivatives as Promising Therapy for Chagas Disease: In Vitro and In Vivo Studies” (ACS Infectious Diseases, 2021):

Legend:
[1] = test system: T. cruzi epimastigotes, Arequipa strain; experiment: Screening against extracellular epimastigotes, Arequipa strain; format: cell-based, Trypanosoma cruzi; details: for Selectivity index (SI), epimastigotes, Arequipa strain: IC50 Vero cells/IC50 epimastigotes; for IC50: Trypanosoma cruzi, 48 h + 24 h resazurin, read-out: Activity IC50, epimastigote form, Arequipa strain
[2] = test system: T. cruzi epimastigotes, Tulahuen strain; experiment: Screening against extracellular epimastigotes, Tulahuen strain; format: cell-based, Trypanosoma cruzi; details: for Selectivity index (SI), epimastigotes, Tulahuen strain: IC50 Vero cells/IC50 epimastigotes; for IC50: Trypanosoma cruzi, TULAHUEN, 48 h + 24 h resazurin, read-out: Activity IC50, epimastigote form, Tulahuen strain
Vero cells = experiment: Cytotoxicity test on Vero cells; format: cell-based; details: Chlorocebus sabaeus, 48 h + 24 h resazurin, read-out: Toxicity IC50 Vero cell
[3] = test system: T. cruzi epimastigotes, SN3 strain; experiment: Screening against extracellular epimastigotes, SN3 strain; format: cell-based, Trypanosoma cruzi; details: for Selectivity index (SI), epimastigotes, SN3 strain: IC50 Vero cells/IC50 epimastigotes; for IC50: Trypanosoma cruzi, 48 h + 24 h resazurin, read-out: Activity IC50, epimastigote form, SN3 strain

SMILES	Selectivity index (SI), epimastigotes, Arequipa strain [1]	IC50 [1]	Selectivity index (SI), epimastigotes, Tulahuen strain [2]	IC50 [2]	CC50 (Vero cells)	Selectivity index (SI), epimastigotes, SN3 strain [3]	IC50 [3]
N#C[Se]c1ccc(NC(=O)c2ccno2)cc1 [Compound 30]	9	9.8 ± 1 µM	6	15.3 ± 1.1 µM	86 ± 6.7 µM	4	24.1 ± 2.3 µM
Cc1ccc(C(=O)Nc2ccc([Se]C#N)cc2)cc1 [Compound 27]	–	4.5 ± 0.7 µM	–	4.9 ± 0.3 µM	< 50 µM	–	4.2 ± 0.3 µM
O=C(Nc1ccc([Se][Se]c2ccc(NC(=O)c3cccs3)cc2)cc1)c1cccs1 [Compound 9]	–	> 50 µM	–	> 50 µM	< 50 µM	–	48 ± 6.4 µM
O=P(Nc1ccc([Se][Se]c2ccc(NP(=O)(Oc3ccccc3)Oc3ccccc3)cc2)cc1)(Oc1ccccc1)Oc1ccccc1 [Compound 16]	–	> 50 µM	–	> 50 µM	147 ± 11.4 µM	–	> 50 µM
N#C[Se]c1ccc(NP(=O)(Oc2ccccc2)Oc2ccccc2)cc1 [Compound 37]	–	20.1 ± 2.8 µM	–	22.3 ± 3 µM	< 50 µM	–	30.3 ± 3.2 µM
N#C[Se]c1ccc(NC(=O)c2ccc(C#N)cc2)cc1 [Compound 24]	2	30.5 ± 1.9 µM	5	15.4 ± 2.1 µM	70.8 ± 5.4 µM	7	9.8 ± 1.2 µM
N#C[Se]c1ccc(NC(=O)c2ccc(Cl)cc2)cc1 [Compound 22]	–	36.2 ± 2.8 µM	–	19.4 ± 1.4 µM	< 50 µM	–	5.4 ± 0.7 µM
O=C(Nc1ccc([Se][Se]c2ccc(NC(=O)c3ccc(C(F)(F)F)cc3)cc2)cc1)c1ccc(C(F)(F)F)cc1 [Compound 6]	–	> 50 µM	–	> 50 µM	536 ± 39.2 µM	–	> 50 µM
O=C(/C=C/c1ccccc1)Nc1ccc([Se][Se]c2ccc(NC(=O)/C=C/c3ccccc3)cc2)cc1 [Compound 12]	–	> 50 µM	–	> 50 µM	280 ± 24.4 µM	–	> 50 µM
Cc1ccc(OP(=O)(Nc2ccc([Se][Se]c3ccc(NP(=O)(Oc4ccc(C)cc4)Oc4ccc(C)cc4)cc3)cc2)Oc2ccc(C)cc2)cc1 [Compound 20]	–	> 50 µM	–	> 50 µM	< 50 µM	–	> 50 µM
CCOP(=O)(Nc1ccc([Se]C#N)cc1)OCC [Compound 38]	–	> 50 µM	–	> 50 µM	< 50 µM	–	> 50 µM
COc1ccc(C(=O)Nc2ccc([Se]C#N)cc2)cc1 [Compound 23]	–	34.5 ± 2.7 µM	–	17.6 ± 2.5 µM	< 50 µM	–	4.1 ± 0.4 µM
O=C(Nc1ccc([Se][Se]c2ccc(NC(=O)c3cccc4ccccc34)cc2)cc1)c1cccc2ccccc12 [Compound 13]	–	> 50 µM	–	> 50 µM	98.2 ± 12.8 µM	–	> 50 µM
N#C[Se]c1ccc(NC(=O)/C=C/c2ccccc2)cc1 [Compound 32]	–	7.4 ± 0.9 µM	–	7.9 ± 0.5 µM	< 50 µM	–	4.8 ± 0.8 µM
O=C(Nc1ccc([Se][Se]c2ccc(NC(=O)c3ccco3)cc2)cc1)c1ccco1 [Compound 8]	–	> 50 µM	–	> 50 µM	1250 ± 97.7 µM	–	> 50 µM
N#C[Se]c1ccc(NC(=O)c2ccccc2)cc1 [Compound 21]	–	> 50 µM	–	> 50 µM	< 50 µM	–	37.1 ± 4.6 µM
CCOP(=O)(Nc1ccc([Se][Se]c2ccc(NP(=O)(OCC)OCC)cc2)cc1)OCC [Compound 17]	–	> 50 µM	–	> 50 µM	183 ± 20 µM	–	> 50 µM

SMILES	Selectivity index (SI), epimastigotes, Arequipa strain [1]	IC50 [1]	Selectivity index (SI), epimastigotes, Tulahuen strain [2]	IC50 [2]	CC50 (Vero cells)	Selectivity index (SI), epimastigotes, SN3 strain [3]	IC50 [3]
CSc1ccc(C(=O)Nc2ccc([Se]C#N)cc2)cc1 [Compound 34]	4	16.4 ± 2 µM	2	29.1 ± 3.1 µM	72.6 ± 9.9 µM	3	21 ± 2.7 µM
O=C(Nc1ccc([Se][Se]c2ccc(NC(=O)c3ccc(Cl)cc3)cc2)cc1)c1ccc(Cl)cc1 [Compound 2]	–	> 50 µM	–	> 50 µM	622 ± 41.9 µM	–	> 50 µM
O=C(Nc1ccc([Se][Se]c2ccc(NC(=O)c3ccc([N+](=O)[O-])cc3)cc2)cc1)c1ccc([N+](=O)[O-])cc1 [Compound 5]	–	> 50 µM	–	> 50 µM	552 ± 43.1 µM	–	> 50 µM
O=C(Nc1ccc([Se][Se]c2ccc(NC(=O)C34CC5CC(CC(C5)C3)C4)cc2)cc1)C12CC3CC(CC(C3)C1)C2 [Compound 11]	–	> 50 µM	–	> 50 µM	226 ± 19.1 µM	–	> 50 µM
COP(=O)(Nc1ccc([Se][Se]c2ccc(NP(=O)(OC)OC)cc2)cc1)OC [Compound 15]	–	19.6 ± 2 µM	–	14.4 ± 1.7 µM	< 50 µM	–	12.5 ± 1.1 µM
COc1ccc(C(=O)Nc2ccc([Se][Se]c3ccc(NC(=O)c4ccc(OC)cc4)cc3)cc2)cc1 [Compound 3]	–	> 50 µM	–	> 50 µM	252 ± 21.6 µM	–	> 50 µM
Cc1ccc(C(=O)Nc2ccc([Se][Se]c3ccc(NC(=O)c4ccc(C)cc4)cc3)cc2)cc1 [Compound 7]	–	> 50 µM	–	> 50 µM	341 ± 28.3 µM	–	> 50 µM
N#Cc1ccc(C(=O)Nc2ccc([Se][Se]c3ccc(NC(=O)c4ccc(C#N)cc4)cc3)cc2)cc1 [Compound 4]	–	> 50 µM	–	> 50 µM	280 ± 34.2 µM	–	> 50 µM
O=C(Nc1ccc([Se][Se]c2ccc(NC(=O)c3ccno3)cc2)cc1)c1ccno1 [Compound 10]	–	> 50 µM	–	> 50 µM	212 ± 18.7 µM	–	> 50 µM
Cc1ccc(OP(=O)(Nc2ccc([Se]C#N)cc2)Oc2ccc(C)cc2)cc1 [Compound 41]	–	> 50 µM	–	29.9 ± 2.1 µM	< 50 µM	–	43.2 ± 5.3 µM
CCOP(=S)(Nc1ccc([Se][Se]c2ccc(NP(=S)(OCC)OCC)cc2)cc1)OCC [Compound 18]	–	> 50 µM	–	> 50 µM	182 ± 14.3 µM	–	> 50 µM
O=C(Nc1ccc([Se][Se]c2ccc(NC(=O)c3ccccc3)cc2)cc1)c1ccccc1 [Compound 1]	–	> 50 µM	–	> 50 µM	800 ± 44 µM	–	> 50 µM
N#C[Se]c1ccc(NP(=O)(Nc2ccccc2)Oc2ccccc2)cc1 (stereo not shown) [Compound 40]	–	41.1 ± 4.4 µM	–	> 50 µM	< 50 µM	–	> 50 µM
CSc1ccc(C(=O)Nc2ccc([Se][Se]c3ccc(NC(=O)c4ccc(SC)cc4)cc3)cc2)cc1 [Compound 14]	–	> 50 µM	–	> 50 µM	407 ± 17.8 µM	–	> 50 µM
N#C[Se]c1ccc(NC(=O)C23CC4CC(CC(C4)C2)C3)cc1 [Compound 31]	–	4.6 ± 0.5 µM	–	8.1 ± 0.9 µM	< 50 µM	–	12.5 ± 1.6 µM
O=P(Nc1ccccc1)(Nc1ccc([Se][Se]c2ccc(NP(=O)(Nc3ccccc3)Oc3ccccc3)cc2)cc1)Oc1ccccc1 (stereo not shown) [Compound 19]	–	> 50 µM	–	> 50 µM	< 50 µM	–	> 50 µM
COP(=O)(Nc1ccc([Se]C#N)cc1)OC [Compound 36]	–	28.1 ± 3.2 µM	–	18.4 ± 1.4 µM	< 50 µM	–	4.3 ± 0.7 µM
